Source: ChEMBL document CHEMBL5096162, “A review on ferulic acid and analogs based scaffolds for the management of Alzheimer's disease” (Eur J Med Chem, 2021)
Blank lines part the entries; values can stand above or below the molecule they belong to.

What was measured:
Acetylcholinesterase [1] = biological target: Acetylcholinesterase (Homo sapiens, UniProt P22303); assay: Inhibition of human AchE preincubated for 15 mins followed by substrate addition and measured for 5 mins using acetylthiocholine iodide as substrate by DTNB reagent based Ellman's method
Cholinesterase [2] = biological target: T1, Cholinesterase (Homo sapiens, UniProt P06276)
Description: Inhibition of human BuchE preincubated for 6 mins followed by substrate addition using butyrylthiocholine iodide as substrate by DTNB reagent based Ellman method

[3] = biological target: Amyloid-beta precursor protein (Homo sapiens) (UniProt P05067); assay: Inhibition of self-induced amyloid beta (1 to 42) (unknown origin) aggregation at 20 uM incubated for 46 to 48 hrs in dark by ThT-based fluorimetric assay; details: time 46-48 hrs
PC-12 = assay: Neuroprotective activity against amyloid beta (1 to 42)-induced cytotoxicity in rat PC-12 cells assessed as increase in cell viability at 50 uM preincubated for 2 hrs followed by amyloid beta (1 to 42) stimulation and measured after 24 hrs by MTT assay; format: functional; details: time 26 hrs
Cholinesterase [4] = biological target: Cholinesterase (Equus caballus, UniProt P81908); assay: Inhibition of equine serum BuchE preincubated for 6 mins followed by substrate addition using butyrylthiocholine iodide as substrate by DTNB reagent based Ellman method
[5] = Antioxidant activity assessed as DPPH radical scavenging activity at 200 uM incubated for 2 hrs in dark by spectrophotometric analysis; format: functional
[6] = Antioxidant activity of compound assessed as trolox equivalent of AAPH radical scavenging activity preincubated for 15 mins followed by AAPH addition and measured every 1 min for 60 mins by ORAC-FL assay; format: functional; details: time 75.0 min
[7] = biological target: Amyloid-beta precursor protein (Homo sapiens) (UniProt P05067); assay: Inhibition of self-induced amyloid beta (1 to 40) (unknown origin) aggregation at 20 uM incubated for 48 hrs by ThT-based fluorimetric assay
SH-SY5Y = assay: Neuroprotective activity against H2O2-induced cytotoxicity in human SH-SY5Y cells assessed as increase in cell viability at 10 uM preincubated for 24 hrs followed by H2O2 stimulation and measured after 24 hrs by MTS assay; format: functional; details: time 48 hrs
[8] = biological target: T2, Amine oxidase [flavin-containing] B (Homo sapiens, UniProt P27338); assay: Inhibition of human MAO-B using p-tyramine as substrate preincubated for 15 mins followed by susbtrate addition and measured after 15 mins by HRP and Amplex Red reagent based fluorometric analysis
T2 sequence (P27338 whole entry): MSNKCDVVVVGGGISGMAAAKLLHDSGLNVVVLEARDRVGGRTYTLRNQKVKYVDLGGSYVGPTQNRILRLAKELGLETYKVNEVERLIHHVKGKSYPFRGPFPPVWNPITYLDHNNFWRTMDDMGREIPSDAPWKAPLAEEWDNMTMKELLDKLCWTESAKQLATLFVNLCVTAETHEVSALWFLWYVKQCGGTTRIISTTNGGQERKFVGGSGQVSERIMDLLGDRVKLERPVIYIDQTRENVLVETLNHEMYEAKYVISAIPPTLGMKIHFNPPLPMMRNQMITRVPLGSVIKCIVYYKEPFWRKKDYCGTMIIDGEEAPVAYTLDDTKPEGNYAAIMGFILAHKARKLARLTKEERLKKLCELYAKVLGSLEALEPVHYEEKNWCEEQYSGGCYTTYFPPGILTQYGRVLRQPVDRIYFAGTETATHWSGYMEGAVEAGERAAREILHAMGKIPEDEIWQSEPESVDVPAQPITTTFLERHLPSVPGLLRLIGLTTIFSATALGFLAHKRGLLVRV

[9] = biological target: T3, Amine oxidase [flavin-containing] A (Homo sapiens, UniProt P21397); assay: Inhibition of human MAO-A using p-tyramine as substrate preincubated for 15 mins followed by susbtrate addition and measured after 15 mins by HRP and Amplex Red reagent based fluorometric analysis
T3 sequence (P21397 whole entry): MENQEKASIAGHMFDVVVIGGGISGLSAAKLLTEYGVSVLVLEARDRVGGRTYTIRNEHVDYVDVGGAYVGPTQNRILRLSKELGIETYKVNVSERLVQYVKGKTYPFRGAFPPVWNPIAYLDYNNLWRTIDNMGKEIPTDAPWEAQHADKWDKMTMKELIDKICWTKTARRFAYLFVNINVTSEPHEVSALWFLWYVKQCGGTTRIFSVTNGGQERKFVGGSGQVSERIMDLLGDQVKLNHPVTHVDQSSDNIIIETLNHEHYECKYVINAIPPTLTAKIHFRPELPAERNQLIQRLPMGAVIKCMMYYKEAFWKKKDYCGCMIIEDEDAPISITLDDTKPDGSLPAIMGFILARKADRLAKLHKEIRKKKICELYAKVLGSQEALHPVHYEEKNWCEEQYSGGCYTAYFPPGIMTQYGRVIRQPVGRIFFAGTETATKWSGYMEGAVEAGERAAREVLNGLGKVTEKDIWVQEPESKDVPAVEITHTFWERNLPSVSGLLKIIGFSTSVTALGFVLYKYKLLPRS

[10] = biological target: T2, Amine oxidase [flavin-containing] B; assay: Inhibition of recombinant human MAO-B using kynuramine as substrate preincubated for 15 mins followed by enzyme addition and further incubated for 20 mins by fluorescence microplate reader analysis
Cholinesterase [11] = biological target: T1, Cholinesterase; assay: Inhibition of human BuchE preincubated for 30 mins followed by substrate addition using butyrylthiocholine iodide as substrate by Ellman's method
Acetylcholinesterase [12] = biological target: Acetylcholinesterase (Electrophorus electricus, UniProt O42275); assay: Inhibition of electric eel AchE preincubated for 30 mins followed by substrate addition using acetylthiocholine iodide as substrate by Ellman's method
Acetylcholinesterase (Electrophorus electricus, UniProt O42275), sequence (O42275 whole entry): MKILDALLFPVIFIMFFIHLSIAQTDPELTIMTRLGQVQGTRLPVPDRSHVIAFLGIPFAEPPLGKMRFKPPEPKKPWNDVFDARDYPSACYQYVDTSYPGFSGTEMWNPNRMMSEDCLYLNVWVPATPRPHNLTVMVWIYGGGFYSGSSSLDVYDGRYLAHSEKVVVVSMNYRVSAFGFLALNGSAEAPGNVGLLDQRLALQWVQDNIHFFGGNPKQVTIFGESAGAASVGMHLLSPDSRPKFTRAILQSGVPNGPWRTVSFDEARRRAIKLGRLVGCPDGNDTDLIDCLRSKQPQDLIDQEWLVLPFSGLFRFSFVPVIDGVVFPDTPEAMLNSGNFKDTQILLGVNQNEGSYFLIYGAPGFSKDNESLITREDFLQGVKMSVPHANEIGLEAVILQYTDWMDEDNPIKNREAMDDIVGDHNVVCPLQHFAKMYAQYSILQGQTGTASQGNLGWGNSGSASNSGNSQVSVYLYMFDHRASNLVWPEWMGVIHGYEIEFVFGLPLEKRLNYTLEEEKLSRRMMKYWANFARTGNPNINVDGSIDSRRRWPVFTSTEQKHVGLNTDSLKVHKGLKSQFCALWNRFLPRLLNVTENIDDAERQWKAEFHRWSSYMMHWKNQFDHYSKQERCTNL

T1 sequence (P06276 whole entry): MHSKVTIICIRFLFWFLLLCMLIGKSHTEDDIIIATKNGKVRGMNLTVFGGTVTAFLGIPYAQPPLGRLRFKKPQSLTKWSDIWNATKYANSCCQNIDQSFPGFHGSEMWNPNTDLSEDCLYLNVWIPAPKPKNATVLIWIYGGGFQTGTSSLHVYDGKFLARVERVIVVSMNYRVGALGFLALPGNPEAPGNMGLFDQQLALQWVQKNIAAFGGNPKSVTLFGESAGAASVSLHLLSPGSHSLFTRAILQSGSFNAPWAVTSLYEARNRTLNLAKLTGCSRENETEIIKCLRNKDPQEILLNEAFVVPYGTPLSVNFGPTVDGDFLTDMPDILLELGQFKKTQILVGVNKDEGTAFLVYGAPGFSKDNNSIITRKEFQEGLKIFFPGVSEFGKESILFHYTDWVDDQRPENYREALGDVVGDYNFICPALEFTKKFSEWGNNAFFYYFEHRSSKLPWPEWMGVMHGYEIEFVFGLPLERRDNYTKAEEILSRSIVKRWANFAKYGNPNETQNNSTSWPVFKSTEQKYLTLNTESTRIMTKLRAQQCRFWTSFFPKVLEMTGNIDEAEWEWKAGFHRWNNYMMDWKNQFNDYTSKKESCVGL
Amyloid-beta precursor protein (Homo sapiens), sequence (P05067 whole entry): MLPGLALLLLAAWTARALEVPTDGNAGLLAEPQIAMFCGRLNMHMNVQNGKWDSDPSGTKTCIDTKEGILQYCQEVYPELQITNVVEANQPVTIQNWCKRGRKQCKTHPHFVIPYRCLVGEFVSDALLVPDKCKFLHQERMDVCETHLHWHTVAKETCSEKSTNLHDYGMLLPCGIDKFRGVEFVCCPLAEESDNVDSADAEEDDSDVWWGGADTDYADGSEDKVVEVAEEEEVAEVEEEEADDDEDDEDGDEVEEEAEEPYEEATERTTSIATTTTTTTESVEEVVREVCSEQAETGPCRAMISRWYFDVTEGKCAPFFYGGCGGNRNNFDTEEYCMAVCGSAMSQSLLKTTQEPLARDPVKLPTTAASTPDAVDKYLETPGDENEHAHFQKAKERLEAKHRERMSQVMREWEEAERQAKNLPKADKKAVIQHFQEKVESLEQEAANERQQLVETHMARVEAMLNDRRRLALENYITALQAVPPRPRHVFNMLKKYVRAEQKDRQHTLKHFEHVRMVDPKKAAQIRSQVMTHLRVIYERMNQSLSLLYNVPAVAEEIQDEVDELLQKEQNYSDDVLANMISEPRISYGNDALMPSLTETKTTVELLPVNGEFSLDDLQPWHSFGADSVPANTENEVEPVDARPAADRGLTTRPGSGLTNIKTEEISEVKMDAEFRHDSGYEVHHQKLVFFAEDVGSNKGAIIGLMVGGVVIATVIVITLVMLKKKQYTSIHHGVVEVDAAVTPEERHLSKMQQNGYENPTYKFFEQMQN
Acetylcholinesterase (Homo sapiens, UniProt P22303), sequence (P22303 whole entry): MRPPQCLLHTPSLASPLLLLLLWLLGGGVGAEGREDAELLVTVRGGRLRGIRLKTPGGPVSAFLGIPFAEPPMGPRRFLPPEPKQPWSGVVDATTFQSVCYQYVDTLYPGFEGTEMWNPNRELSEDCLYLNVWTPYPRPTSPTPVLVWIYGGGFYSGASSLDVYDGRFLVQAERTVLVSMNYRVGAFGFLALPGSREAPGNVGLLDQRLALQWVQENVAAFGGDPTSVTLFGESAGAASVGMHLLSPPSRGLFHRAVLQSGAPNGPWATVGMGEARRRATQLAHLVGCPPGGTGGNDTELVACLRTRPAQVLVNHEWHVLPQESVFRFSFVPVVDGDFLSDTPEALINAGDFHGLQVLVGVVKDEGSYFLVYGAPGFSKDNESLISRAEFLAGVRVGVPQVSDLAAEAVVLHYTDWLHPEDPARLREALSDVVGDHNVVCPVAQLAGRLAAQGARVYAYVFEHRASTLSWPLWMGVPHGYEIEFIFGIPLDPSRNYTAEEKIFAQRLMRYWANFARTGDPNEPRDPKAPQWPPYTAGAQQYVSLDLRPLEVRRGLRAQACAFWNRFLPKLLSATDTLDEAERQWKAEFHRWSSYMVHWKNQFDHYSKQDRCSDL
Cholinesterase (Equus caballus, UniProt P81908), sequence (P81908 whole entry): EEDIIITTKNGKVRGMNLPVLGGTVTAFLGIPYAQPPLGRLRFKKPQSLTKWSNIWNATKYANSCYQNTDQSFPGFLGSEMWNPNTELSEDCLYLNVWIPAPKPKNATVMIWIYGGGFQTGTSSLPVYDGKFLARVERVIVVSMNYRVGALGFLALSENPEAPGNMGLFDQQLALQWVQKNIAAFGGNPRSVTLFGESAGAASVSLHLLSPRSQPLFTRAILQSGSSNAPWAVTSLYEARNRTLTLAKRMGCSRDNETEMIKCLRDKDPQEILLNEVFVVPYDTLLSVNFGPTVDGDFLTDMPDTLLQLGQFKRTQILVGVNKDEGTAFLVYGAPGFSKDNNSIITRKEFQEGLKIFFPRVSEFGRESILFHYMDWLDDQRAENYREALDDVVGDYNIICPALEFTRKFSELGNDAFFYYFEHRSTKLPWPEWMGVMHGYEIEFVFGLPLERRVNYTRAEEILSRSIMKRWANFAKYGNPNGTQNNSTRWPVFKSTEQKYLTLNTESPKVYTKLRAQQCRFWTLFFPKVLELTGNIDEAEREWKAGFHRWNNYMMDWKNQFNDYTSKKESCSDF

Compound: C[N+](C)(C)CCNC(=O)/C=C/c1ccc(O)c(O)c1
- IC50 (Acetylcholinesterase [1]): 7300 nM

Compound: COc1ccc(/C=C/C(=O)Nc2cc[n+](Cc3ccc(F)cc3)cc2)cc1OC.[Br-]
- IC50 (Cholinesterase [2]): 4.4 nM
- inhibition [3]: 65.6%
- Activity (PC-12): 66.6%
- IC50 (Cholinesterase [4]): 2.6 nM

- inhibition [7]: 62.7%
Compound: O=C(NCc1ccccc1)C(c1cc2ccccc2nc1Cl)N(Cc1ccccc1)C(=O)/C=C/c1ccc(O)c(O)c1 (centres undefined)
- Activity [5]: > 77%
- Activity [6]: 6.86 equiv
- Activity (SH-SY5Y): 21.87%

- Ki [8]: 110 nM
- Ki [9]: 1950 nM
Compound: COc1ccc(/C=C/C(=O)NCCc2ccccc2)cc1O

- IC50 [10]: 13 nM
Compound: O=C(/C=C/c1ccc(O)cc1)OCCc1ccccc1

Compound: COc1cc(/C=C/C(=O)O[C@H]2C[C@H]3O[C@H](OC(=O)Nc4ccccc4)C[C@H]3O2)ccc1O
- IC50 (Cholinesterase [11]): 29200 nM
- IC50 (Acetylcholinesterase [12]): 27100 nM
